Assay results as given in publication PMC8769378, “Underlining the Importance of Peripheral Protic Functional Groups to Enhance the Proton Exchange of Gd-Based MRI Contrast Agents” (Inorganic Chemistry, 2021).
Where two headings read alike, the source gives them in different places. Marks after values point to notes of the source that are not given here.

Assays:
[1] = Conditional stability constant pGd; assay type: physicochemical; conditions: pGd = −log[Gd]free, [Gd^3+] = 1 μM, [L] = 10 μM, pH = 7.4; calculated from the constants
[2] = cited from earlier work
[3] = cited from earlier work; remark: listed apart in the source
[4] = cited from earlier work; remark: listed apart in the source
[5] = cited from earlier work; remark: listed apart in the source
[6] = cited from earlier work; remark: listed apart in the source
[7] = parameters: method as in PMID 18963244, doi:10.1016/0020-1693(96)05094-3; conditions: cited from earlier work
[8] = cited from earlier work; remark: listed apart in the source
[9] = Acid-assisted dissociation kinetics of Gd^III complexes followed by ^1H NMR relaxometry; conditions: calculated from acid-assisted dissociation only, pH = 7.4, 298 K; comparators from literature constants
Description: In order to investigate the kinetic inertness of the Gd^III complex, the dissociation reactions of GdL2 were followed by ^1H NMR relaxometry (21 MHz and 298 K) in the presence of large acid excess ([HCl] = 0.01–1.0 M) to guarantee the pseudo-first-order kinetic conditions.
The kinetic inertness of the GdL2 was characterized by the rates of the dissociation reactions taking place in 0.01–1.0 M HCl solution. The dissociation reactions of the GdL2 were followed by measuring the longitudinal relaxation time of H2O protons (T1) with a Stelar relaxometer connected to a Bruker WP80 NMR electromagnet adapted to variable-field measurements (15–80 MHz proton Larmor frequency). The temperature was controlled with a Stelar VTC-91 airflow heater equipped with a calibrated copper–constantan thermocouple (uncertainty of ±0.1 °C). Measures were carried out at 21 MHz and 25 °C. The longitudinal relaxation time (T1) was measured with the “inversion recovery” method (180° – τ – 90°) by using 16 different τ values with a typical 90° pulse width of 6.5 μs, 4 scans. The measurements were performed with a 1 mM solution of the GdL2 complex. The relaxivity values were given as r1 = 1/T1p + 1/T1w where T1p and T1w are the relaxation times of the bulk water protons in the presence and absence of GdL2. The pseudo-first-order rate constants (kd) were calculated by fitting the relaxation rate (r1 = 1/T1p) data to eq 4. […] 4 where rr and rv are the relaxivity values of the reactants and the product (Gd^3+: r1p = 12.85 (2) mM^–1 s^–1, 21 MHz, 25 °C) and rt is the measured relaxivity at reaction time t. The temperature was maintained at 25 °C, and the ionic strength of the solutions was kept constant at [H^+] ≤ 0.15 M, [HCl] + [NaCl] = 0.15 M. The calculation of the kinetic parameters was performed by the fitting of the absorbance–time and relaxation rate–time data pairs with the Micromath Scientist computer program (version 2.0, Salt Lake City, UT).
Kinetic inertness of GdL2
In order to investigate the kinetic inertness of GdL2, the dissociation reactions of GdL2 were followed
by 1H-NMR relaxometry in the presence of large acid excess ([HCl]= 0.01 – 1.0 M) to guarantee the
pseudo-first-order kinetic conditions. The R1obs values as a function of time for the dissociation
In the presence of HCl excess, the dissociation of GdL2 can be treated as a pseudo-first-order process
and the rate of the reaction can be expressed by Eq. (S7)
where kd is a pseudo-first-order rate constant, [GdL]t and [GdL]tot are the concentrations of the GdL
species at time t and the total concentration of the complex, respectively. The rates of the dissociation
reactions were determined at different concentrations of HCl ([HCl]=0.01 – 1.0 M).
The proton assisted dissociation
of GdL2 might occur by the equilibrium formation of a protonated *Gd(H2L2) intermediate (Eq.
(S8)), which dissociates spontaneously (Eq. (S9)).
Gd(HL2) + H Gd(H2L2) (S8)

[10] = cited from earlier work; for ^298r1-60-MHz: 298 K; for ^310r1-60-MHz: 310 K
[11] = cited from earlier work; remark: listed apart in the source
[12] = cited from earlier work; remark: listed apart in the source
[13] = parameters: method as in PMID 34123071; conditions: 0.15 M NaCl, 298 K ref 7, cited from earlier work; for ^GdLH–1r1^is+os / ^GdLr1^is+os: 20 MHz
[14] = Longitudinal relaxivity r1 and relaxivity vs pH profiles; assay type: physicochemical; conditions: 21 MHz, 25 °C
Procedure: The longitudinal relaxivity values (r1) for GdL1 and GdL2, at 20 MHz (0.47 T), 298 K, and pH 7.4, are 4.7 and 5.1 mM^–1 s^–1, respectively. These are typical values of the clinical MRI contrast agents, i.e., low-molecular-weight q = 1 Gd^III chelates that tumble rapidly in solution.[1],[2] In particular, these values compare well with the r1 reported for GdHPDO3A[24] and other HPDO3A-like complexes such as GdHPDO3MA[25] or the series of Gd-hydroxypropylamide-DO3A (HPADO3A, Scheme 1)[7] complexes measured at the same experimental conditions.
At pH >3, the r1 values of GdL2 decrease with the increase of pH from 6.6 mM^–1 s^–1 to reach a plateau of 5.1 mM^–1 s^–1 around pH = 7.5. A further increase of the pH results in the slight increase of r1 reaching a maximum around pH = 9.5. Finally, at pH >9.5, another small decrease in r1 is observed. On the other hand, in the case of GdL1, the r1 values are independent from the pH in the range 4.0–7.5, whereas at pH >8.0, r1 increases up to 5.2 mM^–1 s^–1. The r1 values of GdL1 were measured in the pH range 4–10 in order to avoid the hydrolysis of the methyl ester. […] Then, the overall relaxivity, r1, is given by eq 1: [drawing 1] 1 where r1^is, r1^os, and r1^pr are the relaxivity components due to the inner and outersphere water molecules and the −OH group, respectively. r1^pr can be expressed as follows:[26]−[28] [drawing 2] 2
Proton relaxation measurements (1/T1) and the resulting 1/T1 NMRD profiles were measured on a fast-field cycling (FFC) Stelar SmarTracer relaxometer over a continuum of magnetic field strengths from 0.000 24 to 0.25 T (corresponding to 0.01–10 MHz proton Larmor frequencies). The relaxometer operates under computer control with an absolute uncertainty in 1/T1 of ±1%. […] Furthermore, the real temperature inside the probe head was additionally monitored by a Fluke 52 k/j digital thermometer (Fluke, Zürich, Switzerland). The gadolinium concentration was determined by measuring the bulk magnetic susceptibility shifts of the t-BuOH ^1H NMR signal. Additional data in the 20–120 MHz frequency range were obtained with a high field relaxometer (Stelar) equipped with the HTS-110 3T metrology cryogen-free superconducting magnet. […] The pH-dependent relaxivity measurements of GdL1 and GdL2 complexes were carried out by direct titration of the samples (GdL2, 3.0 < pH < 12.5; GdL1, 4 < pH < 10). The pH was adjusted by the stepwise addition of concentrated NaOH or HCl solution. Calculations were performed with the computer program Micromath Scientist, version 2.0 (Salt Lake City, UT).

[15] = I = 0.1 M Me4NCl, 298 K ref 19, 20
[16] = 0.1 M Me4NCl, 25 °C ref [13], [14] (SI)
[17] = 0.15 M NaCl, 25 °C ref [11] (SI)

## O=C(O)CN1CCN(CC(=O)O)CCN(C(CO)C(O)CO)CCN(CC(=O)O)CC1 (stereo not drawn) [BT-DO3A]
[1]
  pGd: 15.63 ^h
[2]; I = 0.1 M NaCl, 298 K ref 15
  GdL (log KGdL, stability constant): 18.7
[2]; footnote 0.15 M NaCl, 25 °C ref [5] (SI)
  GdH2L (log K, *Gd(H2L) out-of-cage intermediate): 4.53
[3]; I = 0.1 M NaCl, 298 K ref 15
  Gd(L)H–1 (log KGd(L)H-1): 9.48
[4]; 0.1 M NaCl, 25 °C ref [5] (SI)
  ZnHL (log K): 4.3
[4]; I = 0.1 M NaCl, 298 K ref 15
  ZnL (log K, stability constant): 17.0
[5]; I = 0.1 M NaCl, 298 K ref 15
  log K1^H: 9.46
  log K2^H: 9.36
  log K3^H: 4.17
  log K4^H: 3.02
[6]; 0.1 M NaCl, 25 °C ref [5] (SI)
  CuH2L (log K): 2.4
  CuHL (log K): 3.8
[6]; I = 0.1 M NaCl, 298 K ref 15
  CuL (log K, stability constant): 19.1
[7]
  log KNa(L) (stability of the Na^+ complex): 2.32
[8]; I = 0.1 M NaCl, 298 K ref 15
  CaL (log K, stability constant): 12.1

## NC(=O)[C@H](O)CN1CCN(CC(=O)[O-])CCN(CC(=O)[O-])CCN(CC(=O)[O-])CC1.[Gd+3] [GdHPADO3A]
[9]
  kd at pH = 7.4: 6.41 × 10^–12 s^–1
[10]; 60 MHz ref 7
  ^298r1-60-MHz: 3.6 mM^–1 s^–1
  ^310r1-60-MHz: 2.9 mM^–1 s^–1
[10]
  Δ^2: 8.5 10^19 s^–2
  τR: 62 ps
  τv: 14 ps
[10]; determined for qSS = 2 and rSF = 3.5 Å ref 7
  τR(SS): 13
[10]; pH 7 ref 7
  τM: 20 ns
[11]; 298 K ref 7
  k1 (acid-catalyzed dissociation rate constant): 1.6 × 10^–4 M^–1 s^–1
[12]; from pH 7.4 to 5 ref 7
  Δr1 (relaxivity increase): 5.5 mM^–1 s^–1
[13]
  kH × 10^–11: 2.1 M^–1 s^–1
  ^GdLH–1r1^is+os: 4.32 mM^–1 s^–1
  ^GdLr1^is+os: 4.57 mM^–1 s^–1

## O=C([O-])CN1CCN(CC(=O)[O-])CCN(C(CO)C(O)CO)CCN(CC(=O)[O-])CC1.[Gd+3] (stereo not drawn) [GdBT-DO3A]
[9]
  kd at pH = 7.4: 1.35 × 10^–12 s^–1
[11]; 298 K ref 15
  k1 (acid-catalyzed dissociation rate constant): 2.8 × 10^–5 M^–1 s^–1

## CC(O)CN1CCN(CC(=O)O)CCN(CC(=O)O)CCN(CC(=O)O)CC1 (stereo not drawn) [HPDO3A, 10-(2-hydroxypropyl)-1,4,7,10-tetraazacyclododecane-1,4,7-triacetic acid]
[1]
  pGd: 18.16 ^h
[2]; [15]
  GdL (log KGdL, stability constant): 23.8
[2]; footnote 0.15 M NaCl, 25 °C ref [13], [14] (SI)
  GdH2L (log K, *Gd(H2L) out-of-cage intermediate): 5.10
[4]; [16]
  ZnHL (log K): 3.7
[4]; [15]
  ZnL (log K, stability constant): 19.37
[5]; [15]
  log K1^H: 11.96
  log K2^H: 9.43
  log K3^H: 4.30
  log K4^H: 3.26
[6]; [16]
  CuH2L (log K): 2.3
  CuHL (log K): 3.72
[6]; [15]
  CuL (log K, stability constant): 22.84
[8]; [15]
  CaL (log K, stability constant): 14.83

## [Gd+3] [Gd^3+]
[14]
  r1p: 12.85 (2) mM^–1 s^–1

## CC(O)CN1CCN(CC(=O)[O-])CCN(CC(=O)[O-])CCN(CC(=O)[O-])CC1.[Gd+3] (stereo not drawn) [GdHPDO3A]
[9]
  kd at pH = 7.4: 1.15 × 10^–11 s^–1
[10]; 60 MHz ref 24
  ^298r1-60-MHz: 4.2 mM^–1 s^–1
  ^310r1-60-MHz: 3.2 mM^–1 s^–1
[10]; SAP isomer ref 24
  Δ^2: 9.9 10^19 s^–2
  τM: 640 ns
  τv: 8 ps
[10]; TSAP isomer ref 24
  Δ^2: 1.5 10^19 s^–2
  τM: 8.5 ns
  τv: 30 ps
[10]
  τR: 65 ps
[11]; 298 K ref 18
  k1 (acid-catalyzed dissociation rate constant): 2.9 × 10^–4 M^–1 s^–1
[12]; pH > 10 ref 5
  Δr1 (base-catalyzed proton exchange contribution to r1): 1.2 mM^–1 s^–1
[13]
  kOH × 10^–10: 1.0 M^–1 s^–1
  ^GdLH–1r1^is+os: 4.54 mM^–1 s^–1
  ^GdLr1^is+os: 4.28 mM^–1 s^–1

## NC(=O)[C@H](O)CN1CCN(CC(=O)O)CCN(CC(=O)O)CCN(CC(=O)O)CC1 [HPADO3A]
[1]
  pGd: 16.88 ^h
[2]; [17]
  GdH2L (log K, *Gd(H2L) out-of-cage intermediate): 5.72
[2]; I = 0.15 M NaCl, 298 K ref 7
  GdL (log KGdL, stability constant): 18.41
[3]; I = 0.15 M NaCl, 298 K ref 7
  Gd(L)H–1 (log KGd(L)H-1): 6.73
[4]; [17]
  Zn(L)H-1 (log K): 10.79 (5)
  ZnH2L (log K): 2.87
  ZnHL (log K): 3.67
[4]; I = 0.15 M NaCl, 298 K ref 7
  ZnL (log K, stability constant): 17.18
[5]; I = 0.15 M NaCl, 298 K ref 7
  log K1^H: 8.96
  log K2^H: 9.07
  log K3^H: 4.22
  log K4^H: 2.64
  log K5^H: 1.25
[6]; [17]
  Cu(L)H-1 (log K): 10.55
  CuH2L (log K): 1.24
  CuHL (log K): 4.00
[6]; I = 0.15 M NaCl, 298 K ref 7
  CuL (log K, stability constant): 21.53
[8]; [17]
  Ca(L)H-1 (log K): 11.50
  CaHL (log K): 4.67
[8]; I = 0.15 M NaCl, 298 K ref 7
  CaL (log K, stability constant): 12.13

## O=C(O)CN1CCN(CC(=O)O)CCN(CC(=O)O)CCN(CC(=O)O)CC1 [DOTA]
[1]
  pGd: 22.09 ^h
[2]; I = 0.1 M NaCl, 298 K ref 22
  GdL (log KGdL, stability constant): 24.7
[2]; footnote 0.15 M NaCl, 25 °C ref [16] (SI)
  GdH2L (log K, *Gd(H2L) out-of-cage intermediate): 6.07
[5]; I = 0.1 M NaCl, 298 K ref 22
  log K1^H: 9.37
  log K2^H: 9.14
  log K3^H: 4.63
  log K4^H: 3.91
[7]
  log KNa(L) (stability of the Na^+ complex): 4.38

## O=C([O-])CN1CCN(CC(=O)[O-])CCN(CC(=O)[O-])CCN(CC(=O)[O-])CC1.[Gd+3] [GdDOTA]
[9]
  kd at pH = 7.4: 7.28 × 10^–14 s^–1
[11]; 298 K ref 18
  K^HGdL: 14 M^–1
  k1 (acid-catalyzed dissociation rate constant): 1.8 × 10^–6 M^–1 s^–1
